This passage reports AC50 results from article PMC4777217, “Modelling the Tox21 10 K chemical profiles for in vivo toxicity prediction and mechanism characterization” (Nature Communications, 2016).

One assay deals with ATAD5. Briefly: ATAD5-luc genotoxicity assay (agonist mode). The assay is classed as cell-based. Conditions: Homo sapiens, positive control titration on every plate, mean, n=408.
For assay [1], the system named is heat-shock factor response element. Description: HSE-bla qHTS assay (agonist mode). Format: cell-based, human. Conditions: positive control titration on every plate, mean, n=408. (In general: In qHTS, concentration-response curves come from the screen itself.)
Description: (§1) All cell-based assays were multiplexed with a cell viability assay in the same assay well. Although bla-based assays were multiplexed with a luminescence-based cell viability assay (CellTiter-Glo viability assay, Promega), luc-based assays were multiplexed with a fluorescence-based cell viability assay (Cell Titer-Fluor viability assay, Promega). […] A number of stress response pathway assays, including ATAD5-luc[33], a genotoxicity assay, p53-bla, antioxidant responsive element (ARE-bla)[34] and heat-shock factor response element (HSE-bla) assays, were screened in agonist mode.
(§2) In primary screening, all compounds were tested as three independent runs, with each of the three instances of a compound sample residing in a different location on a different compound plate across replicates. […] Analysis of compound concentration–response data was performed as previously described[5]. […] Compound reproducibility was assessed by calculating the reproducibility of the curve ranks of each compound generated from the triplicate runs[9].
For another assay, the system named is Mitochondria toxicity. To be noted: read-out: Control AC50, positive control titration on every plate, mean, n=408.
The target in assay [2] is T1, peroxisome proliferator-activated receptor gamma (Homo sapiens, UniProt P37231).
T1 sequence (P37231 238-505 limits assumed): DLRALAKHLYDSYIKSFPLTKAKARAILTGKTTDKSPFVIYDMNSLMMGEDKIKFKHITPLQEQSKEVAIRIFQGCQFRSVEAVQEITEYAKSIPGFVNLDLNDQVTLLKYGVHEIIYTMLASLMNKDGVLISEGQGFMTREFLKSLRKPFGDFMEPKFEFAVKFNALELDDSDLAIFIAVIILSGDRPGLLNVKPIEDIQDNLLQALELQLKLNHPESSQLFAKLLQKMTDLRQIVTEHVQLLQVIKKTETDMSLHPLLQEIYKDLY
Briefly: PPAR-gamma-bla antagonist mode qHTS assay. The assay is classed as cell-based. To be noted: positive control titration on every plate, mean, n=408.
Description: (§3) The assays were run in different modes (agonist versus antagonist) and/or formats (full length versus partial receptor) as detailed below, totaling 30 assays. […] All cell-based assays were multiplexed with a cell viability assay in the same assay well. Although bla-based assays were multiplexed with a luminescence-based cell viability assay (CellTiter-Glo viability assay, Promega), luc-based assays were multiplexed with a fluorescence-based cell viability assay (Cell Titer-Fluor viability assay, Promega). […]
(§4) In primary screening, all compounds were tested as three independent runs, with each of the three instances of a compound sample residing in a different location on a different compound plate across replicates. […] Briefly, raw plate reads for each titration point were first normalized relative to the positive control compound (agonist mode: 100%; antagonist mode: 0%) and dimethylsulphoxide (DMSO)-only wells (agonist mode: 0%; antagonist mode: -100%) as follows: % Activity=((Vcompound – VDMSO)/(Vpos – VDMSO)) × 100, where Vcompound denotes the compound well values, Vpos denotes the median value of the positive control wells and VDMSO denotes the median values of the DMSO-only wells, and then corrected by applying an in-house pattern correction algorithm using compound-free control plates (that is,, DMSO-only plates) at the beginning and end of the compound plate stack. […]

The target in assay [3] is T2, peroxisome proliferator-activated receptor delta (Homo sapiens, UniProt Q03181).
T2 sequence (Q03181 211-441 limits assumed): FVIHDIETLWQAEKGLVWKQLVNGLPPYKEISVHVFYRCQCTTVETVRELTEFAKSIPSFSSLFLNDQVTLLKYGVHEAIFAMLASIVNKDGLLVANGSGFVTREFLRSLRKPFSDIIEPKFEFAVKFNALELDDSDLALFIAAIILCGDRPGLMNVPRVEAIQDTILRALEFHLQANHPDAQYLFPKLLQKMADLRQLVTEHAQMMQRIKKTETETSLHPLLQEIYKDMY
Description: PPAR-delta-bla agonist mode qHTS assay. The assay is classed as cell-based. Conditions: positive control titration on every plate, mean, n=408.
Description: as §3, §4

Assay [4] deals with T2, peroxisome proliferator-activated receptor delta. Description: PPAR-delta-bla antagonist mode qHTS assay. Format: cell-based. Conditions: positive control titration on every plate, mean, n=408.
Description: as §3, §4
A further assay deals with p53. Briefly: P53-bla qHTS assay (agonist mode). The assay is classed as cell-based. Conditions: Homo sapiens, positive control titration on every plate, mean, n=408.
Assay [5] concerns the target aryl hydrocarbon receptor (Homo sapiens, UniProt P35869). Description: AhR-luc qHTS assay. Format: cell-based. To be noted: positive control titration on every plate, mean, n=408.
Description: as §1, §2
In the next assay the test system is DT40 WT cells. Briefly: DT40 WT cell viability assay. The assay is classed as cell-based, chicken. To be noted: positive control titration on every plate, mean, n=408.
The next assay has as its system DT40 Rad54/Ku70 cells. Briefly: DT40 Rad54/Ku70 mutant cell viability assay. Format: cell-based, chicken. Conditions: positive control titration on every plate, mean, n=408.
Another assay deals with DT40 Rev3 cells. Briefly: DT40 Rev3 cell viability assay. Format: cell-based, chicken. Conditions: positive control titration on every plate, mean, n=408.
Assay [6] deals with antioxidant responsive element. Description: ARE-bla qHTS assay (agonist mode). To be noted: Homo sapiens, positive control titration on every plate, mean, n=408. Format: cell-based.
Description: as §3, §4

Sequence of aryl hydrocarbon receptor (P35869 11-848): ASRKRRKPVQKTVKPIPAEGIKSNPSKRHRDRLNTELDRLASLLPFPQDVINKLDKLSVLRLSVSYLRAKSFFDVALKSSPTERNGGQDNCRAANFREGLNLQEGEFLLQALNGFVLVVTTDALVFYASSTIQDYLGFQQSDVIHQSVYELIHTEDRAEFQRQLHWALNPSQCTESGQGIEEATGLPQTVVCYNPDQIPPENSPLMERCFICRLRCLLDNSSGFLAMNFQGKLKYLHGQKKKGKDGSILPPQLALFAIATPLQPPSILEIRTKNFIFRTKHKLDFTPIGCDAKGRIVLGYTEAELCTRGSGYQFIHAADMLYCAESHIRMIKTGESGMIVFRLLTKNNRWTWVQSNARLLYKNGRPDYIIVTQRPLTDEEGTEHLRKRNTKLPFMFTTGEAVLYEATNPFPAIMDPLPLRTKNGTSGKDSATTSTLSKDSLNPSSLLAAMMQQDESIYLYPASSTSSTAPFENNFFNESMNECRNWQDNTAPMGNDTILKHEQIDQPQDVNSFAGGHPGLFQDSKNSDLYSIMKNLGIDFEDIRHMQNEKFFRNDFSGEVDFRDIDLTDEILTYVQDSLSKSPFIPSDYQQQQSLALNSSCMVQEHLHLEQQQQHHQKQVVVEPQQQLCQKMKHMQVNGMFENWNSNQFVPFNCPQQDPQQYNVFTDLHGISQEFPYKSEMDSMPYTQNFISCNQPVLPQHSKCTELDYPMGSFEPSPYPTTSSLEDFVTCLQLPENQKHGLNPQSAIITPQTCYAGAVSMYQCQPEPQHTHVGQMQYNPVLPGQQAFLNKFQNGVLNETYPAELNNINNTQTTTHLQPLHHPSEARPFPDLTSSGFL
Description for ATAD5: as §1, §2
Description for p53: as §3, §4

`O=c1[nH]c(=O)n([C@@H]2O[C@H](CO)[C@@H](O)[C@H]2O)cc1F` [5-Fluorouridine] returned an AC50 in the assay with ATAD5 of 2120 nM.
For the compound `C=CCNC1=C2C[C@@H](C)C[C@H](OC)[C@H](O)[C@@H](C)/C=C(\C)[C@H](OC(N)=O)[C@@H](OC)/C=C\C=C(/C)C(=O)NC(=CC1=O)C2=O` [17-AAG], the AC50 in [1] is 45.3 nM.
Turning to `N#CC(C#N)=NNc1ccc(OC(F)(F)F)cc1` [FCCP], in the assay with Mitochondria toxicity, the AC50 came to 96.2 nM.
`O=C(Nc1ccccc1)c1cc([N+](=O)[O-])ccc1Cl` [GW9662] displayed an AC50 in assay [2] of 2.47 nM.
`CCCc1c(OCCCOc2ccc(OCC(=O)O)cc2)ccc(C(C)=O)c1O` [L-165,041] gave an AC50 in assay [3] of 36.4 nM.
With `CC(C)c1ccc2c(c1)c(SC(C)(C)C)c(CC(C)(C)C(=O)O)n2Cc1ccc(Cl)cc1` [MK886], the AC50 in assay [4] was found to be 38500 nM.
As to `CO[C@@]12[C@H](COC(N)=O)C3=C(C(=O)C(C)=C(N)C3=O)N1C[C@@H]1N[C@@H]12` [Mitomycin C], the AC50 with p53 was determined as 1530 nM.
`COc1ccc2[nH]c([S+]([O-])Cc3ncc(C)c(OC)c3C)nc2c1` (stereo not drawn) [Omeprazole]: the AC50 in assay [5] stood at 49500 nM.
Regarding `CCCCCCCC[N+](CCCCCCCC)(CCCCCCCC)CCCCCCCC` [Tetra-octyl ammonium bromide], the values for the AC50 in the assay on DT40 WT cells, with DT40 Rad54/Ku70 cells and in the assay with DT40 Rev3 cells were 594 nM, 416 nM and 440 nM, respectively.
Take `O=c1cc(-c2ccccc2)oc2ccc3ccccc3c12` [β-Naphthoflavone]: in [6], the AC50 turned out to be 1950 nM.
